From US6992169B2, “Carrier based drug delivery system” (Cyclacel Limited, priority 1998, dated 2006)

What was measured:
[1] = system: HT29; experiment: In vitro cytotoxic activity, inhibition of cell proliferation, ATP bioluminescence (ViaLight); format: cell-based, human
Procedure: (§1) This compound (abbreviated ‘MTX-Pen’ in the tables below) was evaluated for its ability to inhibit cell proliferation of normal (immortalised) human cells (HaCaT cells, Tables 1 & 2) and a human colorectal cancer cell line (HT29, Table 3).
(§2) Assay procedure—Cells were seeded into 96-well plates at 2,500 cells/well in DMEM with 10% FCS and antibiotics. After overnight incubation, test compound dilutions in cell medium were prepared and were added to the cells. Samples were taken 1, 2, 3, and 4 days after compound addition. Nucleotide Releasing Reagent (LumiTech ViaLight kit) was added in order to lyse the cells and release ATP. After incubation at room temperature (5 min), the mixtures were transferred to opaque 96-well plates and stored at −20° C. until analysis. After loading plates into a luminometer (Lucy 1, Labtech International), ATP Monitoring Reagent (20 μL/well, LumiTech ViaLight kit) was added to each well successively and light intensity was measured immediately. Six readings were taken per sample. Each assay point was established using six replicates and appropriate controls. […] Statistically significant results in the tables below are printed in bold face.
(§3) This compound (abbreviated ‘MTX-Pen’ in tables below) was evaluated for its ability to inhibit cell proliferation of normal (immortalised) human cells (HaCaT cells, Tables 1 & 2) and a human colorectal cancer cell line (HT29, Table 3).
(§4) Assay procedure—Cells were seeded into 96-well plates at 2,500 cells/well in DMEM with 10% foetal calf serum and antibiotics. After overnight incubation, test compound dilutions in cell medium were prepared and were added to the cells. Samples were taken 1, 2, 3, and 4 days after compound addition. Nucleotide Releasing Reagent (LumiTech ViaLight kit) was added in order to lyse the cells and release ATP. After incubation at room temperature (5 min), the mixtures were transferred to opaque 96-well plates and stored at −20° C. until analysis. After loading plates into a luminometer (Lucy 1, Labtech International), ATP Monitoring Reagent ([…], LumiTech ViaLight kit) was added to each well successively and light intensity was measured immediately. Six readings were taken per sample. Each assay point was established using six replicates and appropriate controls.

[2] = system: HaCaT cells; experiment: as above; format: cell-based, human
Procedure: as §1, §2, §3, §4

SMILES: CN(Cc1cnc2nc(N)nc(N)c2n1)c1ccc(C(=O)N[C@@H](CCC(=O)O)C(=O)O)cc1 [MTX, methotrexate]
- % Cell Death ([1]; Table 3, HT 29, Dose 0.1 μM, Day 1): 6%
- % Cell Death ([1]; Table 3, HT 29, Dose 0.1 μM, Day 2): −17%
- % Cell Death ([1]; Table 3, HT 29, Dose 0.1 μM, Day 3): 52%
- % Cell Death ([1]; Table 3, HT 29, Dose 0.1 μM, Day 4): 84%
- % Cell Death ([1]; Table 3, HT 29, Dose 0.2 μM, Day 1): 10%
- % Cell Death ([1]; Table 3, HT 29, Dose 0.2 μM, Day 2): −5%
- % Cell Death ([1]; Table 3, HT 29, Dose 0.2 μM, Day 3): 54%
- % Cell Death ([1]; Table 3, HT 29, Dose 0.2 μM, Day 4): 85%
- % Cell Death ([1]; Table 3, HT 29, Dose 0.5 μM, Day 1): 15%
- % Cell Death ([1]; Table 3, HT 29, Dose 0.5 μM, Day 2): −12%
- % Cell Death ([1]; Table 3, HT 29, Dose 0.5 μM, Day 3): 52%
- % Cell Death ([1]; Table 3, HT 29, Dose 0.5 μM, Day 4): 88%
- % Cell Death ([1]; Table 3, HT 29, Dose 1.5 μM, Day 1): 17%
- % Cell Death ([1]; Table 3, HT 29, Dose 1.5 μM, Day 2): −5%
- % Cell Death ([1]; Table 3, HT 29, Dose 1.5 μM, Day 3): 48%
- % Cell Death ([1]; Table 3, HT 29, Dose 1.5 μM, Day 4): 84%
- % Cell Death ([1]; Table 3, HT 29, Dose 4.4 μM, Day 1): −14%
- % Cell Death ([1]; Table 3, HT 29, Dose 4.4 μM, Day 2): −4%
- % Cell Death ([1]; Table 3, HT 29, Dose 4.4 μM, Day 3): 58%
- % Cell Death ([1]; Table 3, HT 29, Dose 4.4 μM, Day 4): 86%
- % Cell Death ([2]; Table 1, HaCaT, Dose 0.2 μM, Day 1): 7%
- % Cell Death ([2]; Table 1, HaCaT, Dose 0.2 μM, Day 2): 11%
- % Cell Death ([2]; Table 1, HaCaT, Dose 0.2 μM, Day 3): 79%
- % Cell Death ([2]; Table 1, HaCaT, Dose 0.2 μM, Day 4): 93%
- % Cell Death ([2]; Table 1, HaCaT, Dose 0.5 μM, Day 1): −4%
- % Cell Death ([2]; Table 1, HaCaT, Dose 0.5 μM, Day 2): 31%
- % Cell Death ([2]; Table 1, HaCaT, Dose 0.5 μM, Day 3): 75%
- % Cell Death ([2]; Table 1, HaCaT, Dose 0.5 μM, Day 4): 93%
- % Cell Death ([2]; Table 1, HaCaT, Dose 1.5 μM, Day 1): 13%
- % Cell Death ([2]; Table 1, HaCaT, Dose 1.5 μM, Day 2): 31%
- % Cell Death ([2]; Table 1, HaCaT, Dose 1.5 μM, Day 3): 77%
- % Cell Death ([2]; Table 1, HaCaT, Dose 1.5 μM, Day 4): 94%
- % Cell Death ([2]; Table 1, HaCaT, Dose 4.4 μM, Day 1): 4%
- % Cell Death ([2]; Table 1, HaCaT, Dose 4.4 μM, Day 2): 24%
- % Cell Death ([2]; Table 1, HaCaT, Dose 4.4 μM, Day 3): 77%
- % Cell Death ([2]; Table 1, HaCaT, Dose 4.4 μM, Day 4): 93%
- % Cell Death ([2]; Table 1, HaCaT, Dose 13.3 μM, Day 1): 22%
- % Cell Death ([2]; Table 1, HaCaT, Dose 13.3 μM, Day 2): 35%
- % Cell Death ([2]; Table 1, HaCaT, Dose 13.3 μM, Day 3): 82%
- % Cell Death ([2]; Table 1, HaCaT, Dose 13.3 μM, Day 4): 92%
- % Cell Death ([2]; Table 1, HaCaT, Dose 40.0 μM, Day 1): 4%
- % Cell Death ([2]; Table 1, HaCaT, Dose 40.0 μM, Day 2): 15%
- % Cell Death ([2]; Table 1, HaCaT, Dose 40.0 μM, Day 3): 79%
- % Cell Death ([2]; Table 1, HaCaT, Dose 40.0 μM, Day 4): 92%
- % Cell Death ([2]; Table 2, HaCaT, Dose 0.1 μM, Day 1): 19%
- % Cell Death ([2]; Table 2, HaCaT, Dose 0.1 μM, Day 2): 7%
- % Cell Death ([2]; Table 2, HaCaT, Dose 0.1 μM, Day 3): 45%
- % Cell Death ([2]; Table 2, HaCaT, Dose 0.1 μM, Day 4): 65%
- % Cell Death ([2]; Table 2, HaCaT, Dose 0.2 μM, Day 1): 3%
- % Cell Death ([2]; Table 2, HaCaT, Dose 0.2 μM, Day 2): 41%
- % Cell Death ([2]; Table 2, HaCaT, Dose 0.2 μM, Day 3): 94%
- % Cell Death ([2]; Table 2, HaCaT, Dose 0.2 μM, Day 4): 86%
- % Cell Death ([2]; Table 2, HaCaT, Dose 0.5 μM, Day 1): 0%
- % Cell Death ([2]; Table 2, HaCaT, Dose 0.5 μM, Day 2): 59%
- % Cell Death ([2]; Table 2, HaCaT, Dose 0.5 μM, Day 3): 96%
- % Cell Death ([2]; Table 2, HaCaT, Dose 0.5 μM, Day 4): 91%
- % Cell Death ([2]; Table 2, HaCaT, Dose 1.5 μM, Day 1): 14%
- % Cell Death ([2]; Table 2, HaCaT, Dose 1.5 μM, Day 2): 67%
- % Cell Death ([2]; Table 2, HaCaT, Dose 1.5 μM, Day 3): 96%
- % Cell Death ([2]; Table 2, HaCaT, Dose 1.5 μM, Day 4): 91%
- % Cell Death ([2]; Table 2, HaCaT, Dose 4.4 μM, Day 1): 21%
- % Cell Death ([2]; Table 2, HaCaT, Dose 4.4 μM, Day 2): 70%
- % Cell Death ([2]; Table 2, HaCaT, Dose 4.4 μM, Day 3): 97%
- % Cell Death ([2]; Table 2, HaCaT, Dose 4.4 μM, Day 4): 92%
